Experiments:
[1] = target: Tyrosine-protein kinase SYK (Homo sapiens) (UniProt P43405); assay: Inhibition of SYK (unknown origin) at 10 uM relative to control
[2] = target: T1, Serine/threonine-protein kinase 3 (Homo sapiens) (UniProt Q13188); assay: Inhibition of STK3 (unknown origin) at 10 uM relative to control
T1 sequence (whole entry): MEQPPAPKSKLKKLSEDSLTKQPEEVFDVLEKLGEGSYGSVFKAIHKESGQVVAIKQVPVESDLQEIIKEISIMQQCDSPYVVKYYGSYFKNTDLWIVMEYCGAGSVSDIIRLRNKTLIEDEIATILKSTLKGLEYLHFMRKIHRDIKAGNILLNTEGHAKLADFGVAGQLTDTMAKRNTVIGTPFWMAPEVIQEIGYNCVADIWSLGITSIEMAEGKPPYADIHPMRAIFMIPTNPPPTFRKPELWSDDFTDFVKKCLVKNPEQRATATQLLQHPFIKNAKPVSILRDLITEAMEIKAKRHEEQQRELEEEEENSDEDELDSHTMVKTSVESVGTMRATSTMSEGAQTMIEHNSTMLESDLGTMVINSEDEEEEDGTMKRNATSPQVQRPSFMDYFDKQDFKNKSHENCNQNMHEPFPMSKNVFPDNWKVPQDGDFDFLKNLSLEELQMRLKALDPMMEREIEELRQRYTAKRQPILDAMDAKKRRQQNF

[3] = target: Rho-associated protein kinase 2 (Homo sapiens) (UniProt O75116); assay: Inhibition of ROCK2 (unknown origin) at 10 uM relative to control
[4] = target: Receptor-interacting serine/threonine-protein kinase 2 (Homo sapiens) (UniProt O43353); assay: Inhibition of RIPK2 (unknown origin) at 10 uM relative to control
Chain of Receptor-interacting serine/threonine-protein kinase 2 (Homo sapiens) (O43353 whole entry): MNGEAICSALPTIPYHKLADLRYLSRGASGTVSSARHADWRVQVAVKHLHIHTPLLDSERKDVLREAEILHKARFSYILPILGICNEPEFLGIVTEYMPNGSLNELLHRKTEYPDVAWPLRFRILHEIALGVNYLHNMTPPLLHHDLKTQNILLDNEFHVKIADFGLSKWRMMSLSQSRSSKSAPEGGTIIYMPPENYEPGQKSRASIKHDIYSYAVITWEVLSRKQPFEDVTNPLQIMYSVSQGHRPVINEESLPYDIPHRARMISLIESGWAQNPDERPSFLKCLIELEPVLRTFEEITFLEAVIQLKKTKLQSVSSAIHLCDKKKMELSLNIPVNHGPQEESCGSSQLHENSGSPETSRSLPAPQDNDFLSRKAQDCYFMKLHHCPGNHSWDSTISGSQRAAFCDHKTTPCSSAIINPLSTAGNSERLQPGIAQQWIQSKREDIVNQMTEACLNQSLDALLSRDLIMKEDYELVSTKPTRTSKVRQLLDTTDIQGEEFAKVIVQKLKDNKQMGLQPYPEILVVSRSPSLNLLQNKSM

[5] = target: Protein kinase C beta type (Homo sapiens) (UniProt P05771); assay: Inhibition of PRKCbeta1 (unknown origin) at 10 uM relative to control
Chain of Protein kinase C beta type (Homo sapiens) (P05771 2-671 limits assumed): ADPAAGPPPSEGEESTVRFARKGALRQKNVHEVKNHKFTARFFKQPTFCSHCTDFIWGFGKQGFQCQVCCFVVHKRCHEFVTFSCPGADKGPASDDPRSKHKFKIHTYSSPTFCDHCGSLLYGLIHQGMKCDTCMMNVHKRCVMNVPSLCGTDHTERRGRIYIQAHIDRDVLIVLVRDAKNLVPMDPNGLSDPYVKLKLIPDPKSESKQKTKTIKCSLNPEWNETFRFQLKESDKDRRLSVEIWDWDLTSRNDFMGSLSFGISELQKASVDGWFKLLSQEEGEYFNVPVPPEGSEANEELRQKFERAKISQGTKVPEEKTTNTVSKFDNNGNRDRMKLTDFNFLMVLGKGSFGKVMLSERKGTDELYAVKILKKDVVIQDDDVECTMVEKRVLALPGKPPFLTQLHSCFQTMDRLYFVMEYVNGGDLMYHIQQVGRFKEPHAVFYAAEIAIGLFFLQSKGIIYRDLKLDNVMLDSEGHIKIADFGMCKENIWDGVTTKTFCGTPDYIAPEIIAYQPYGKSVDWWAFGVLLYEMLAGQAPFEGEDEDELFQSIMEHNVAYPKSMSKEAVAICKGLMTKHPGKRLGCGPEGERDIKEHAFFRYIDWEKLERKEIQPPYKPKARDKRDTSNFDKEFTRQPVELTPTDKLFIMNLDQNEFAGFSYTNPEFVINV

[6] = target: Serine/threonine-protein kinase PLK2 (Homo sapiens) (UniProt Q9NYY3); assay: Inhibition of PLK2 (unknown origin) at 10 uM relative to control
Chain of Serine/threonine-protein kinase PLK2 (Homo sapiens) (Q9NYY3 whole entry, looked up): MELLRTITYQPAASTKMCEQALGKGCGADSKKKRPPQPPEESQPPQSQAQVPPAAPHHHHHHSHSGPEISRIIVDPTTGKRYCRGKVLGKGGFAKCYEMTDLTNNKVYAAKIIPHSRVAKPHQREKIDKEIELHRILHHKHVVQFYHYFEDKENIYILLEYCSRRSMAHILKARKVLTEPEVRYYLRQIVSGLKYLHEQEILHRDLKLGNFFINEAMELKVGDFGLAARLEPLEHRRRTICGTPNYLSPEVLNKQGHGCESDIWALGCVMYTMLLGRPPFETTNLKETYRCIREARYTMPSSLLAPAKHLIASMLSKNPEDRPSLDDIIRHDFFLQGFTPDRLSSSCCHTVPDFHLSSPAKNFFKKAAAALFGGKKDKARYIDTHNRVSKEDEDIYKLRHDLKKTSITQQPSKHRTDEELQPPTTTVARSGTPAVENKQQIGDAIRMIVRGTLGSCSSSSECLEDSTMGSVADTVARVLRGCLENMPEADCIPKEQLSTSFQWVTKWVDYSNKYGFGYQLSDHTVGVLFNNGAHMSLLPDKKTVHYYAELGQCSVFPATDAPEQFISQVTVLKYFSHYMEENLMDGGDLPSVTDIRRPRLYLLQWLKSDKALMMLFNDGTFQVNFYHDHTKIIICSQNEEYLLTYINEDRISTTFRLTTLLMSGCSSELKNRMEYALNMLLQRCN

[7] = target: Mitogen-activated protein kinase 1 (Homo sapiens) (UniProt P28482); assay: Inhibition of MAPK1 (unknown origin) at 10 uM relative to control
Chain of Mitogen-activated protein kinase 1 (Homo sapiens) (P28482 whole entry): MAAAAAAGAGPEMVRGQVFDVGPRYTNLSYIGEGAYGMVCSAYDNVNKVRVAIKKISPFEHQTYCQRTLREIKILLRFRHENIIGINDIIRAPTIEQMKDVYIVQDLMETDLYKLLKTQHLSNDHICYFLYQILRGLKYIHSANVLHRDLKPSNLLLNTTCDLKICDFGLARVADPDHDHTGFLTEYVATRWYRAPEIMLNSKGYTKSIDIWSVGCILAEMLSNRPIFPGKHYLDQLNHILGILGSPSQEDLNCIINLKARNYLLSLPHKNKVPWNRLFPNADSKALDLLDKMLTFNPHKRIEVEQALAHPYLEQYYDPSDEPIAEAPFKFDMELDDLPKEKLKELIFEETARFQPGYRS

[8] = target: T2, Mitogen-activated protein kinase kinase kinase 7 (Homo sapiens) (UniProt O43318); assay: Inhibition of MAP3K7 (unknown origin) at 10 uM relative to control
T2 sequence (whole entry): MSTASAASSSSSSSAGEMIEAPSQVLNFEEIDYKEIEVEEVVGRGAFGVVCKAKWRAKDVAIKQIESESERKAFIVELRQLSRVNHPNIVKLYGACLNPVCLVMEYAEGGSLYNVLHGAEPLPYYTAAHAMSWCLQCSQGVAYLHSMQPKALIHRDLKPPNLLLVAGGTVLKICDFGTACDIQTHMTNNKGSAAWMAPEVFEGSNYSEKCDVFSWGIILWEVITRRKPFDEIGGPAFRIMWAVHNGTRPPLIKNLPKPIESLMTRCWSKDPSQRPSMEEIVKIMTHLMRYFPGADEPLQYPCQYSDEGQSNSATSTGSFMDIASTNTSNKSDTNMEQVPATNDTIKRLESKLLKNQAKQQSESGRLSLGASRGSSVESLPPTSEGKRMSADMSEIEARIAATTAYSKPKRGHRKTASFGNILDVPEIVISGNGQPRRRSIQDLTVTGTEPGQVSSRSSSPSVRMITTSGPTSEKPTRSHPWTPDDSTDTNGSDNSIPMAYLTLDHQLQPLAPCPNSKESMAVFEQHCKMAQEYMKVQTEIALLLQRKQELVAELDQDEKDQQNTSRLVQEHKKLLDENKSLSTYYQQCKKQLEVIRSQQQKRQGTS

[9] = target: Insulin receptor (Homo sapiens) (UniProt P06213); assay: Inhibition of INSR (unknown origin) at 10 uM relative to control
[10] = target: Glycogen synthase kinase-3 beta (Homo sapiens) (UniProt P49841); assay: Inhibition of GSK3beta (unknown origin) at 10 uM relative to control
Chain of Glycogen synthase kinase-3 beta (Homo sapiens) (P49841 whole entry, looked up): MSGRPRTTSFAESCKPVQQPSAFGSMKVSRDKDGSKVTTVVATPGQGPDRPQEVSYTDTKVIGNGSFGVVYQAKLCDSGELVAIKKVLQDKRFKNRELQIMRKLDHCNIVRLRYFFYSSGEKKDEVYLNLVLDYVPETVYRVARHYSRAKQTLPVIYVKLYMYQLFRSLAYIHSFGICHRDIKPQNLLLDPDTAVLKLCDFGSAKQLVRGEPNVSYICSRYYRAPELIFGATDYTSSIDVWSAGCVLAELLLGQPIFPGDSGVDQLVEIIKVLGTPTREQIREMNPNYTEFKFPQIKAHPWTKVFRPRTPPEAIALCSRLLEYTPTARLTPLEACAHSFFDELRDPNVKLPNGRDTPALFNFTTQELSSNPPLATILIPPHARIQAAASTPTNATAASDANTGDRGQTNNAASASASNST

[11] = target: Dual specificity tyrosine-phosphorylation-regulated kinase 1B (Homo sapiens) (UniProt Q9Y463); assay: Inhibition of DYRK1B (unknown origin) at 10 uM relative to control
Chain of Dual specificity tyrosine-phosphorylation-regulated kinase 1B (Homo sapiens) (Q9Y463 whole entry, looked up): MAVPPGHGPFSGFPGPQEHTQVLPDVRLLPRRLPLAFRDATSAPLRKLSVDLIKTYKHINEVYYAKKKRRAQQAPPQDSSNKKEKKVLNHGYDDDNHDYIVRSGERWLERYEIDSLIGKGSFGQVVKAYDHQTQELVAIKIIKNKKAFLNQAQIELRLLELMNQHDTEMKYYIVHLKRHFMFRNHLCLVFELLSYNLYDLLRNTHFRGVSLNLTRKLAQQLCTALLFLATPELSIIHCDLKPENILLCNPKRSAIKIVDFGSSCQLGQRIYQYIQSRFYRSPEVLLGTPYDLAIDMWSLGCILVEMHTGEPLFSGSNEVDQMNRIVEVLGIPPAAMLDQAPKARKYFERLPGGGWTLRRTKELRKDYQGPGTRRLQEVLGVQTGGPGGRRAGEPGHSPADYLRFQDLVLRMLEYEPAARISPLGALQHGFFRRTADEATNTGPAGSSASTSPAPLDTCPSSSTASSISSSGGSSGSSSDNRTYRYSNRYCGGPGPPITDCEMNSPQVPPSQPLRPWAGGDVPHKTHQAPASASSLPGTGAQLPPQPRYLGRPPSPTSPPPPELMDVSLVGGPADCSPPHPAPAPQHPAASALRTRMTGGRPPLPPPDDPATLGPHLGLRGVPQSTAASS

[12] = target: T3, Serine/threonine-protein kinase Chk1 (Homo sapiens) (UniProt O14757); assay: Inhibition of CHK1 (unknown origin) at 10 uM relative to control
T3 sequence (whole entry): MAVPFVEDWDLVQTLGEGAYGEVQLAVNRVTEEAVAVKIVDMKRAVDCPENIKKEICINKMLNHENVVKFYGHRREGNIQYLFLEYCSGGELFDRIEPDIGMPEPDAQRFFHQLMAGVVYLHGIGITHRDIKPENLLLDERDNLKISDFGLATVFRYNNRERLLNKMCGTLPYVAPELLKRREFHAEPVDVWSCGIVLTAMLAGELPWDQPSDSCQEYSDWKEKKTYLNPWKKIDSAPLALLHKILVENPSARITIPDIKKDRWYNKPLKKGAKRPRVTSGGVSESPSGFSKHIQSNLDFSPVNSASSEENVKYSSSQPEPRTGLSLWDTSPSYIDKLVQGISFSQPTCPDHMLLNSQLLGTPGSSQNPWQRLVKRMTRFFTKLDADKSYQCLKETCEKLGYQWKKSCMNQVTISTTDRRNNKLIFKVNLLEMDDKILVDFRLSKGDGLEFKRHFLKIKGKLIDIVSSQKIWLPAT

[13] = target: Cyclin-dependent kinase 5/CDK5 activator 1 (Homo sapiens) (UniProt Q00535+Q15078); assay: Inhibition of CDK5/P25 (unknown origin) at 10 uM relative to control; format: protein-complex assay
Chain of Cyclin-dependent kinase 5/CDK5 activator 1 (Homo sapiens) (Q00535 whole entry): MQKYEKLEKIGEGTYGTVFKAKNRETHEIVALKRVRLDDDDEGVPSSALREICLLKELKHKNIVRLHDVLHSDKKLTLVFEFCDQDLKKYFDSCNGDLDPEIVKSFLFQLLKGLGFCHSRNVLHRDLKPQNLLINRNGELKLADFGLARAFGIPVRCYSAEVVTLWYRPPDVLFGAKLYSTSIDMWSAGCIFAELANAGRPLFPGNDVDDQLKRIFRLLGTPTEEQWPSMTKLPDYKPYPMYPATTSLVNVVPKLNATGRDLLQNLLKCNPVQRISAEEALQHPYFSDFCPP
Chain of Cyclin-dependent kinase 5/CDK5 activator 1 (Homo sapiens) (Q15078 99-307 partner limits assumed): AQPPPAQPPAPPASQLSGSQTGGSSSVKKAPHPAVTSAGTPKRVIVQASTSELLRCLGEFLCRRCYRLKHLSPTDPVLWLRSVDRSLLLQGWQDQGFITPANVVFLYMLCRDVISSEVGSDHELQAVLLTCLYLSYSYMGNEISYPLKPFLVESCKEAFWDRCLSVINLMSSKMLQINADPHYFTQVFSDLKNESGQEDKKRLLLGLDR

[14] = target: Cyclin-dependent kinase 1/cyclin B1 (Homo sapiens) (UniProt P06493+P14635); assay: Inhibition of CDK1/cyclin B (unknown origin) at 10 uM relative to control; format: protein-complex assay
[15] = target: T4, Aurora kinase A (Homo sapiens) (UniProt O14965); assay: Inhibition of Aurora A (unknown origin) at 10 uM relative to control
T4 sequence (whole entry): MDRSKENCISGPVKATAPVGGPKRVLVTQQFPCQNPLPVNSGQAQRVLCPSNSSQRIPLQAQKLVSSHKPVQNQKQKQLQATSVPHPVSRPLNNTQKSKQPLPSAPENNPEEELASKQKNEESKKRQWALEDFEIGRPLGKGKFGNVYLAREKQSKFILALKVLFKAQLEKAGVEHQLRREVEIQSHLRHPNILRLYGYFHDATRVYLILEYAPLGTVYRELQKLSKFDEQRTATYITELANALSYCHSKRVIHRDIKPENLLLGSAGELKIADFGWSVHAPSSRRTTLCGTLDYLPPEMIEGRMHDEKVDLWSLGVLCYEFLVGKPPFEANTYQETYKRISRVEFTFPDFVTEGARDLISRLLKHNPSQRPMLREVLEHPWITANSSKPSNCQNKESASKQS

[16] = target: Tyrosine-protein kinase ABL1 (Homo sapiens) (UniProt P00519); assay: Inhibition of ABL1 (unknown origin) at 10 uM relative to control
Chain of Tyrosine-protein kinase ABL1 (Homo sapiens) (P00519 whole entry): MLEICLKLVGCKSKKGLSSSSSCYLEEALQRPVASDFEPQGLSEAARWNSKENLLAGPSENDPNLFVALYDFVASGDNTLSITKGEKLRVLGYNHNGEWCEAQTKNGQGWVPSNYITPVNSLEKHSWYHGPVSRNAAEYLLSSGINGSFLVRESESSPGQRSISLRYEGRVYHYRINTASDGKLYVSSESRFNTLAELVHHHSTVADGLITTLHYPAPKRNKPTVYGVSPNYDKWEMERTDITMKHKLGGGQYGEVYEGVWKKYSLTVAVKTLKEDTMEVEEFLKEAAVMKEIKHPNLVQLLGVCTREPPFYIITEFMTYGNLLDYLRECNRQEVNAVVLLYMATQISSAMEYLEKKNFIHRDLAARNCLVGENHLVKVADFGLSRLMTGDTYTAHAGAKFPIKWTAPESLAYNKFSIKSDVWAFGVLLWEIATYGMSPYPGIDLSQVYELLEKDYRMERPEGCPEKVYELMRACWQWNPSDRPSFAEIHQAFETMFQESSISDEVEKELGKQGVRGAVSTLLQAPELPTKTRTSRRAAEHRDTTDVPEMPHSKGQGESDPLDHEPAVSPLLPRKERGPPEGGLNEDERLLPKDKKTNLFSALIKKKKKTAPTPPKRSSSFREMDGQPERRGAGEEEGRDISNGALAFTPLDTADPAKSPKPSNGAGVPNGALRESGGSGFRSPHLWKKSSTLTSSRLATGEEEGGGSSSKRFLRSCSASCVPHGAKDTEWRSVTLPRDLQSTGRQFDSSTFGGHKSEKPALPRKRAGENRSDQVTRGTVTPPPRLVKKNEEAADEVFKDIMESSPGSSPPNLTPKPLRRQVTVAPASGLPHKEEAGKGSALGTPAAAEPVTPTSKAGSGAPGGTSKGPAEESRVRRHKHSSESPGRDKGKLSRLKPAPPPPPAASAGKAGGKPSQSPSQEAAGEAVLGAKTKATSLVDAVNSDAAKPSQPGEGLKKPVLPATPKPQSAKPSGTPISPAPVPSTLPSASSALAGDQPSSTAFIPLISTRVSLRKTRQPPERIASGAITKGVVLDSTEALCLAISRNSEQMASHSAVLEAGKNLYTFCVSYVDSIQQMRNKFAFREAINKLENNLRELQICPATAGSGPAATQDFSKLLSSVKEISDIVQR

Row | inhibition [1] [%] | inhibition [2] [%] | inhibition [3] [%] | inhibition [4] [%] | inhibition [5] [%] | inhibition [6] [%] | inhibition [7] [%] | inhibition [8] [%] | inhibition [9] [%] | inhibition [10] [%] | inhibition [11] [%] | inhibition [12] [%] | inhibition [13] [%] | inhibition [14] [%] | inhibition [15] [%] | inhibition [16] [%] | SMILES
1 | 72 | 100 | 86 | 52 | 8 | 7 | 7 | 89 | 4 | 6 | 9 | 72 | 2 | 1 | 60 | 50 | CC(C)Nc1c(C(N)=O)cnc2cc(-c3ccc(S(C)(=O)=O)cc3)ccc12
2 | 81 | 42 | 78 | 44 | 0 | 6 | -5 | 67 | -1 | 42 | 7 | 93 | 3 | 3 | 81 | 56 | CC(C)Nc1c(C(N)=O)nnc2cc(N3CCOCC3)ccc12
3 | 79 | 66 | 53 | 15 | -2 | 11 | 3 | 66 | 7 | 17 | 20 | 82 | -1 | 7 | 34 | 46 | CS(=O)(=O)c1ccc(-c2ccc3c(NC4CCC4)c(C(N)=O)nnc3c2)cc1
4 | 55 | 91 | 70 | 28 | 0 | 17 |  | 39 | 0 | 29 | 3 | 54 |  | -3 | 68 | 68 | C[C@@H](Nc1c(C(N)=O)nnc2cc(-c3ccc(S(C)(=O)=O)cc3)ccc12)C1CC1
5 | 79 | 99 | 88 | 91 | 43 | 51 | 26 | 84 | 13 | 94 | 97 | 66 | 82 | 102 | 83 | 97 | CC(C)Nc1c(C(N)=O)nnc2ccc(-c3ccncc3)cc12
6 | 94 |  | 97 | 76 | 15 | 30 | 23 | 102 | 33 | 88 | 44 | 95 | 32 | 40 | 90 | 91 | CC(C)Nc1c(C(N)=O)nnc2cc(-c3ccncc3)ccc12
7 | 97 | 100 | 99 | 98 | 40 | 80 | 63 | 97 | 39 | 95 | 97 | 78 | 97 | 102 | 100 | 97 | CC(C)Nc1c(C(N)=O)nnc2ccc(-c3cn[nH]c3)cc12

— ChEMBL document CHEMBL2331489, “Novel cinnoline-based inhibitors of LRRK2 kinase activity” (Bioorg Med Chem Lett, 2013)
